Source: ChEMBL document CHEMBL5154803, “Spermine-Conjugated Short Proline-Rich Lipopeptides as Broad-Spectrum Intracellular Targeting Antibacterial Agents” (J Med Chem, 2022)
Values after ≈ are worked out from the molar mass of the structure shown. Active and inactive are the calls of the source. No cut-off for these calls is given here. Where a SMILES comes first, the peptide text is derived from it. The star is where a group is joined. Lauroyl = CCCCCCCCCCCC(=O)*; Decanoyl = CCCCCCCCCC(=O)*; Spermine = NCCCNCCCCNCCCN*

Key:
Staphylococcus aureus [1] = assay: Synergistic antibacterial activity against MDR-methicillin-resistant Staphylococcus aureus ATCC BAA-44 assessed as neomycin MIC by checkerboard assay; assay type: functional
Staphylococcus aureus [2] = assay: In vivo antibacterial activity against Staphylococcus aureus ATCC 25923 infected in BALB/c mouse model assessed as reduction of bacterial load in spleen at 5 mg/kg, ip administered as single dose measured after 24 hrs by colony counting based analysis (reference value: 6X10^3 CFU); assay type: functional
[3] = Acute toxicity in BALB/c mouse assessed as effect on locomotor activity at 10 mg/kg, ip measured for 7 days; assay type: organism-based; conditions: in vivo, 168 h, time 7 day
Staphylococcus aureus [4] = assay: Additive antibacterial activity against MDR-methicillin-resistant Staphylococcus aureus ATCC BAA-44 assessed as fold change in tetracycline MIC by checkerboard assay; assay type: functional
Bacterial 70S ribosome = assay: Binding affinity to Escherichia coli MRE600 70S ribosome assessed as inhibition constant preincubated for 90 mins followed by incubation with Rho-C12-PR-Spn for 90 mins by competitive fluorescence binding assay; assay type: subcellular
Staphylococcus aureus [5] = assay: Synergistic antibacterial activity against MDR-methicillin-resistant Staphylococcus aureus ATCC BAA-44 assessed as ampicillin MIC by checkerboard assay; assay type: functional
Escherichia coli [6] = assay: Antibacterial activity against Escherichia coli ATCC 25922 assessed as reduction in bacterial growth measured after 18 hrs by broth microdilution method; assay type: functional
Escherichia coli [7] = assay: Bactericidal activity against Escherichia coli ATCC 25922 assessed as log reduction of bacterial growth at 5XMIC incubated for 2 hrs followed by plating on MHII agar pate for 24 hrs; assay type: functional; conditions: time 26 hrs
Staphylococcus aureus [8] = assay: Additive antibacterial activity against MDR-methicillin-resistant Staphylococcus aureus ATCC BAA-44 assessed as fractional inhibitory concentration index in presence of rifampicin by checkerboard assay; assay type: functional
trypsin = trypsin (Homo sapiens, UniProt P07477+P07478+P35030); assay: Stability of compound assessed as trypsin (unknown origin)-mediated compound degradation by measuring parent compound remaining at 150 uM measured upto 4 hrs by RP-HPLC method; assay type: ADME, protein assay; conditions: read-out: Stability
Staphylococcus aureus [9] = assay: Additive antibacterial activity against MDR-methicillin-resistant Staphylococcus aureus ATCC BAA-44 assessed as fold change in gentamicin MIC by checkerboard assay; assay type: functional
Staphylococcus aureus [10] = assay: In vivo antibacterial activity against Staphylococcus aureus ATCC 25923 infected in BALB/c mouse model assessed as reduction of bacterial load in liver at 5 mg/kg, ip administered as single dose measured after 24 hrs by colony counting based analysis (reference value: 8.1X10^4 CFU); assay type: functional
Staphylococcus aureus [11] = assay: In vivo antibacterial activity against Staphylococcus aureus ATCC 25923 infected in BALB/c mouse model assessed as reduction of bacterial load in kidney at 5 mg/kg, ip administered as single dose measured after 24 hrs by colony counting based analysis (reference value: 2X10^4 CFU); assay type: functional
Acinetobacter baumannii = assay: Antibacterial activity against Acinetobacter baumannii i ATCC 19606 assessed as reduction in bacterial growth measured after 18 hrs by broth microdilution method; assay type: functional
Staphylococcus aureus [12] = assay: Synergistic antibacterial activity against MDR-methicillin-resistant Staphylococcus aureus ATCC BAA-44 assessed as fold change in chloramphenicol MIC by checkerboard assay; assay type: functional
Staphylococcus aureus [13] = assay: Additive antibacterial activity against MDR-methicillin-resistant Staphylococcus aureus ATCC BAA-44 assessed as tetracycline MIC by checkerboard assay; assay type: functional
Staphylococcus aureus [14] = assay: Synergistic antibacterial activity against MDR-methicillin-resistant Staphylococcus aureus ATCC BAA-44 assessed as fractional inhibitory concentration index in presence of ampicillin by checkerboard assay; assay type: functional
Staphylococcus aureus [15] = assay: Synergistic antibacterial activity against MDR-methicillin-resistant Staphylococcus aureus ATCC BAA-44 assessed as fold change in ampicillin MIC by checkerboard assay; assay type: functional
Staphylococcus aureus [16] = assay: Antibacterial activity against Staphylococcus aureus ATCC 25923 assessed as reduction in bacterial growth measured after 18 hrs by broth microdilution method; assay type: functional
[17] = Cytotoxicity against human THP-1 cells assessed as cell viability at 50 uM by MTT assay; assay type: toxicity, cell-based; conditions: read-out: Activity
Erythrocyte = assay: Hemolytic activity against human RBC assessed as hemolysis upto 100 uM incubated for 1 hr by ELISA plate reader analysis; assay type: toxicity, cell-based
Cell membrane [18] = assay: Disruption of bacterial cell membrane in Escherichia coli ATCC 25922 assessed as proportion of bacteria with intact cell membrane at 5X MIC incubated for 1 hr by PI staining based flow cytometric analysis (reference value: 99.3%); assay type: subcellular
Staphylococcus aureus [19] = assay: Synergistic antibacterial activity against MDR-methicillin-resistant Staphylococcus aureus ATCC BAA-44 assessed as fold change in neomycin MIC by checkerboard assay; assay type: functional
Staphylococcus aureus [20] = assay: Antibacterial activity against MDR-methicillin-resistant Staphylococcus aureus ATCC BAA-44 assessed as reduction in bacterial growth measured after 18 hrs by broth microdilution method; assay type: functional
Staphylococcus aureus [21] = assay: Synergistic antibacterial activity against MDR-methicillin-resistant Staphylococcus aureus ATCC BAA-44 assessed as fractional inhibitory concentration index in presence of chloramphenicol by checkerboard assay; assay type: functional
Escherichia coli [22] = assay: Bacteriostatic activity against Escherichia coli ATCC 25922 at 1XMIC incubated for 4 hrs followed by plating on MHII agar pate for 24 hrs; assay type: functional, organism-based; conditions: time 28.0 hrs
Staphylococcus aureus [23] = assay: Antibacterial activity against methicillin-resistant Staphylococcus aureus ATCC 33591 assessed as reduction in bacterial growth measured after 18 hrs by broth microdilution method; assay type: functional
Cell membrane [24] = assay: Disruption of bacterial cell membrane in Escherichia coli ATCC 25922 assessed as proportion of bacteria with damaged cell membrane at 1X MIC incubated for 1 hr by PI staining based flow cytometric analysis (Rvb =0.7%); assay type: subcellular
Pseudomonas aeruginosa = assay: Antibacterial activity against Pseudomonas aeruginosa ATCC BAA-427 assessed as reduction in bacterial growth measured after 18 hrs by broth microdilution method; assay type: functional
Staphylococcus aureus [25] = assay: Synergistic antibacterial activity against MDR-methicillin-resistant Staphylococcus aureus ATCC BAA-44 assessed as fractional inhibitory concentration index in presence of neomycin by checkerboard assay; assay type: functional
Staphylococcus aureus [26] = assay: Additive antibacterial activity against MDR-methicillin-resistant Staphylococcus aureus ATCC BAA-44 assessed as gentamicin MIC by checkerboard assay; assay type: functional
[27] = target: Bacterial 70S ribosome (Bacteria) (UniProt P0A7V0+P60723+P0AG67+P0A7R5+P0A7R9+P0A7S3+P0A7S9+P0AG59+P0ADZ4+P0A7T3+P0AG63+P0A7T7+P0A7U3+P0A7U7+P68679+P0A7V3+P0A7V8+P0A7W1+P02358+P02359+P0A7W7+P0A7X3+P0A7J3+P0A7J7+P0AA10+P0ADY3+P02413+P0ADY7+P0AG44+P0C018+P0A7K6+P0A7L0+P0A7L3+P0AG48+P61175+P0ADZ0+P60624+P68919+P0A7L8+P0A7M2+P0A7M6+P60422+P0AG51+P0A7N1+P0A7M9+P0A7N4+P0A7N9+P0A7P5+P0A7Q1+Q2EEQ2+P0A7Q6+P60438+P62399+P0AG55+P0A7K2); assay: Inhibition of 70S ribosome-mediated protein synthesis in Escherichia coli at 5XMIC incubated for 1 hr by renilla luciferase based luminescence assay; assay type: subcellular

| Structure (SMILES) | MIC (Staphylococcus aureus [1]) [µg/mL] | Activity (Staphylococcus aureus [2]) | Activity [3] | fold change (FC) (Staphylococcus aureus [4]) | Ki (Bacterial 70S ribosome) [nM] | MIC (Staphylococcus aureus [5]) [µg/mL] | MIC (Escherichia coli [6]) [µM] | Activity (Escherichia coli [7]) [log10CFU/ml] | fractional inhibitory concentration index (FICI) (Staphylococcus aureus [8]) | remaining at 4 h, 150 µM (trypsin) [%] | fold change (FC) (Staphylococcus aureus [9]) | Activity (Staphylococcus aureus [10]) | Activity (Staphylococcus aureus [11]) | MIC (Acinetobacter baumannii) [µM] | fold change (FC) (Staphylococcus aureus [12]) | MIC (Staphylococcus aureus [13]) [µg/mL] | fractional inhibitory concentration index (FICI) (Staphylococcus aureus [14]) | fold change (FC) (Staphylococcus aureus [15]) | MIC (Staphylococcus aureus [16]) [µM] | viability at 50 µM [17] [%] | other results |
| --- | --- | --- | --- | --- | --- | --- | --- | --- | --- | --- | --- | --- | --- | --- | --- | --- | --- | --- | --- | --- | --- |
| CCCCCCCCCC(=O)N1CCC[C@H]1C(=O)N[C@@H](CCCNC(=N)N)C(=O)N1CCC[C@H]1C(=O)N[C@@H](CCCNC(=N)N)C(=O)N1CCC[C@H]1C(=O)N1CCC[C@H]1C(=O)N[C@@H](CCCNC(=N)N)C(=O)NCCCNCCCCNCCCN (Decanoyl-PRPRPPR-Spermine) | 7.81 | <4 10^2CFU | Non-Toxic | 2 | 33.8 | 7.81 | 3.1 (≈ 3.76 µg/mL) | >3 | 0.625 | > 80 | 2 | <4 10^2CFU | <4 10^2CFU | 6.2 (≈ 7.52 µg/mL) | 1 | 31.2 | 0.313 | 2 | 3.1 (≈ 3.76 µg/mL) | 94 | Activity (Erythrocyte): Non-Toxic; Activity (Cell membrane [18]): 90.4%; fold change (FC) (Staphylococcus aureus [19]): 1.6; MIC (Staphylococcus aureus [20]): 3.1 µM (≈ 3.76 µg/mL); fractional inhibitory concentration index (FICI) (Staphylococcus aureus [21]): 2; Activity (Escherichia coli [22]): Active; MIC (Staphylococcus aureus [23]): 3.1 µM (≈ 3.76 µg/mL); Activity (Cell membrane [24]): 6.11%; MIC (Pseudomonas aeruginosa): 6.2 µM (≈ 7.52 µg/mL); fractional inhibitory concentration index (FICI) (Staphylococcus aureus [25]): 0.312; MIC (Staphylococcus aureus [26]): 1.25 µg/mL; inhibition [27]: Active |
| CCCCCCCCCCCC(=O)N1CCC[C@H]1C(=O)N[C@@H](CCCNC(=N)N)C(=O)N1CCC[C@H]1C(=O)N[C@@H](CCCNC(=N)N)C(=O)N1CCC[C@H]1C(=O)N1CCC[C@H]1C(=O)N[C@@H](CCCNC(=N)N)C(=O)NCCCNCCCCNCCCN (Lauroyl-PRPRPPR-Spermine) | 7.81 | <4 10^2CFU | Non-Toxic | 2 | 21.7 | 3.9 | 3.1 (≈ 3.85 µg/mL) | >3 | 1 | > 80 | 1 | <4 10^2CFU | <4 10^2CFU | 6.2 (≈ 7.7 µg/mL) | 4 | 31.2 | 0.28 | 4 | 1.5 (≈ 1.86 µg/mL) | 79 | Activity (Erythrocyte): Non-Toxic; Activity (Cell membrane [18]): 72.7%; fold change (FC) (Staphylococcus aureus [19]): 1.6; MIC (Staphylococcus aureus [20]): 1.5 µM (≈ 1.86 µg/mL); fractional inhibitory concentration index (FICI) (Staphylococcus aureus [21]): 0.5; Activity (Escherichia coli [22]): Active; MIC (Staphylococcus aureus [23]): 1.5 µM (≈ 1.86 µg/mL); Activity (Cell membrane [24]): 7.09%; MIC (Pseudomonas aeruginosa): 6.2 µM (≈ 7.7 µg/mL); fractional inhibitory concentration index (FICI) (Staphylococcus aureus [25]): 0.312; MIC (Staphylococcus aureus [26]): 1.25 µg/mL; inhibition [27]: Active |
